Measurements reported in patent publication US11974969B2, “Artificially synthesized sphingosine derivative lipoid monomer and use of same for delivering nucleic acid” (INSTITUTE OF BASIC MEDICAL SCIENCES CHINESE ACADEMY OF …, priority 2018, dated 2024).

Test system: HEK293T cells
Assay: Flow cytometry (CFlow): delivery of FAM-labeled single-stranded PGY-sRNA-6 into HEK293T cells by different concentrations of single sphingosine derivative (Example 1)
Type: cell-based, human
Details: for delivery of single-stranded PGY-sRNA-6 into 293T cells (fluorescence shift compared to free uptake group): different concentrations: 3.75, 12.5, 37.5 μg single lipid, 0.1 nmol FAM-labeled sRNA, final 100 nM, 9 hours, flow cytometry; for Lipid delivery group (different concentrations of lipids) 3.75 μg/mL: single sphingosine derivative 3.75 μg/mL; for Lipid delivery group (different concentrations of lipids) 3.75 μg/mL / Lipid delivery group (different concentrations of lipids) 12.5 μg/mL / Lipid delivery group (different concentrations of lipids) 37.5 μg/mL: FAM-labeled PGY-ssRNA-6 100 nM, 293T cells, fluorescence shift by flow cytometry; for Lipid delivery group (different concentrations of lipids) 12.5 μg/mL: single sphingosine derivative 12.5 μg/mL; for Lipid delivery group (different concentrations of lipids) 37.5 μg/mL: single sphingosine derivative 37.5 μg/mL
Procedure: 2.1 5 μl of small RNA (Ribobio, 20 μM, as shown in Table 2) and 95 μL of DEPC (Sigma) treated water were added into a 1.5 ml EP tube and mixed well. Then a certain amount of single lipid or lipid composition in chloroform solution (as shown in Table 1) was added and fully mixed by sucking and blowing;
2.2 The system was fully mixed and was heated in a water bath at 90° C. for 15 minutes;
2.3 The system was taken out and cooled down to room temperature.
4.3 The human embryonic kidney cell line HEK293T and human monocyte THP-1 cells used in the experiment were cultured to logarithmic growth phase, and then plated into 12-well plates with a cell density of 6×10^5/1 mL medium/well. The 12-well plate (1 mL medium/well) was incubated overnight (12 h) at 37° C., followed by subsequent experiments.
4.4 The experiment groups were as follows: • 1) Naïve group: untreated cells. This group served as a blank control group. • 2) Free uptake group: […] of 5′-FAM labeled small RNA solution (storage concentration is 20 μM) was directly added. This group served as a negative control group; • 3) Lipid nucleic acid mixture treatment group: The mixture of the lipid prepared in step 2 and the 5′-FAM-labeled small RNA was added into the cells and mixed well. The final concentration of small RNA is 100 nM.
4.5 After co-incubation with cells for 6 h/9 h, the cells were washed three times with PBS. The cells were re-suspended with PBS (self-prepared). The flow cytometer Accuri® C6 instrument (purchased from BD, US) was used to detect the fluorescence intensity of the cells in the sample wells. Implementation method: the software CFlow Plus used in the flow cytometer Accuri® C6 instrument detection was opened, the instrument was washed with cleaning solution for 3 minutes, and then washed with double-distilled water for 5 minutes. The injection of blank group samples was started while setting the number of cells unlimited. The injection of Naïve group samples was stopped when the number of cells detected was 10000 events. The live cell group in the fluorescence spectrum (abscissa: FSC-A, ordinate: SSC-A) was circled as gate P1. With the number of cells set as limited, the detection was stopped when the number of cells in gate P1 reached 10000 events. The fluorescence shift value was obtained in the fluorescence spectrum (abscissa: fluorescence channel FLA-1, ordinate: SSC-A).
1) Conditions of the boiling method: to 100 μL FAM-labeled single-stranded PGY-sRNA-6 solution was added corresponding amount of lipid solution, and heated at 90° C. for 15 min;
2) Experimental conditions: the final concentration of small RNA was 100 nM. 9 hours after being added to the cells, the amount of single-stranded PGY-sRNA-6 that entered into the cells was compared by detecting the fluorescence shift using flow cytometry technology. For the detailed protocols, see “Flow cytometry technology (CFlow) determined the uptake amount of nucleic acid that is delivered into cells by lipid”. All experiments were performed in triplicates.

Row | Structure (SMILES) | delivery of single-stranded PGY-sRNA-6 into 293T cells (fluorescence shift compared to free uptake group) | Lipid delivery group (different concentrations of lipids) 3.75 μg/mL [%] | Lipid delivery group (different concentrations of lipids) 12.5 μg/mL [%] | Lipid delivery group (different concentrations of lipids) 37.5 μg/mL [%]
1 | CCCCCCCCCCCCC/C=C/[C@@H](O)[C@H](CO)NC(=O)CCCCCCCCCCC [So-62, N-[(1S,2R,3E)-2-hydroxy-1-(hydroxymethyl)-3-heptadecen-1-yl]-dodecanamide] | deliver | 6.60 | 6.50 | 7.10
2 | CCCCCCCCCCCCCCCC(=O)N[C@@H](CO)[C@H](O)CCCCCCCCCCCCCCC [So-10, N-hexadecanoyl-D-erythro-Dihydrosphingosine] | deliver | 2.10 | 3.40 | 2.50
3 | CCCCCCCCCCCCC/C=C/[C@@H](O)[C@@H](N)CO[C@@H]1O[C@H](CO)[C@@H](O)[C@H](O)[C@H]1O [So-49, 1-β-D-Glucosylsphingosine (synthetic)] | deliver | 0.50 | 1.70 | 7.40
4 | CCCCCCCCCCCCCCC[C@@H](O)[C@@H](N)CO (stereo in doubt) [So-71, (2S,3R)-2-amino-1,3-Octadecanediol] | deliver | 3.60 | 6.20 | 8.80
5 | [2H]C([2H])([2H])C([2H])([2H])C([2H])([2H])C([2H])([2H])CCCCCCCCC/C=C/[C@@H](O)[C@@H](N)CO [So-74, (2S,3R,E)-aminooctadec-4-ene-15,15,16,16,17,17,18,18,18-d9-1,3-diol] | deliver | 4.00 | 3.10 | 6.60
6 | CCCCCCCCCCCCCCCCCC(=O)N[C@@H](CO)[C@H](O)[C@H](O)CCCCCCCCCCCCCC [So-69, N-[(1S,2S,3R)-2,3-dihydroxy-1-(hydroxymethyl)heptadecyl]-octadecanamide] | deliver | 4.60 | 3.80 | 3.30
7 | CCCCCCCCCC(=O)C(N)CO.Cl (centres unmarked) [So-72, 2-amino-1-hydroxy-3-dodecanone, monohydrochloride] | deliver | 2.40 | 3.40 | 14.10
8 | CCCCCCCCCCCCCC[C@@H](O)[C@@H](O)[C@@H](N)CO [So-63, 2S-amino-1,3S,4R-octadecanetriol] | deliver | 5.60 | 7.70 | 6.50
9 | CCCCCCCCCCCCCC[C@@H](O)[C@@H](O)[C@H](CO)NC(=O)CCCCC [So-67, N-[(1S,2S,3R)-2,3-dihydroxy-1-(hydroxymethyl)heptadecyl]-hexanamide] | deliver | 6.30 | 5.30 | 2.80
10 | CCCCCCCCCCCCCC[C@@H](O)[C@@H](N)COP(=O)(O)O [So-15, dihydro-D-erythro-Sphingosine-C17-1-phosphate] | deliver | 4.70 | 1.90 | 2.40
11 | CCCCCCCCCCCCCC=CC(O)C(COP(=O)(O)OCCN)NC(C)=O (centres unmarked) [So-60, N-Acetyl-Sphingosylphosphorylethanolamine] | deliver | 7.10 | 7.10 | 6.20
12 | CCCCCCCCCCCCCCCC(=O)C(N)CO.Cl (centres unmarked) [So-8, 3-keto Dihydrosphingosine] | deliver | 3.60 | 4.50 | 1.90
13 | CCCCCCCCCCCCC/C=C/[C@H](O)[C@H](N)CO [So-70, (2R,3S,4E)-2-amino-4-octadecene-1,3-diol] | deliver | 4.70 | 10.10 | 11.40
14 | CC(C)CCCCCCCCCCC[C@@H](O)[C@@H](N)CO [So-75, 1,3-Hexadecanediol, 2-amino-15-methyl-, D-erythro-] | deliver | 3.00 | 4.20 | 11.40
15 | CCCCCCCCCCCC/C=C/[C@@H](O)[C@@H](N)CO [So-53, D-erythro-Sphingosine C-17] | deliver | 0.20 | 0.30 | 6.70
16 | CCCCCCCCCCCCC/C=C/[C@@H](O)[C@H](CO)NC(=O)CCCCCNC(=O)CCCC[C@@H]1SC[C@@H]2NC(=O)N[C@@H]21 [So-3, N-hexanoyl-biotin-D-erythro-Sphingosine] | deliver | 1.40 | 2.10 | 3.40
17 | CCCCCCCCCCCCCCC[C@H](O)[C@H](N)CO [So-46, C18 L-erythro Sphinganine (d18:0)] | deliver | 0.20 | 0.30 | 6.90
